Our source for the IC50 values is BindingDB's records for doi:10.1016/j.bmc.2018.06.012 (Astellas Pharma, 2018).

The nature of the experiment: Inhibition of PI3Kdelta in Balb/c mouse splenocytes-derived B cells assessed as reduction in anti-IgM antibody-stimulated B cell proliferation after 2 days alamar blue assay. For orientation: The colour change of resazurin is a common sign of viable cells or microbes.
In general, IC50 refers to the concentration that inhibits the measured activity by half. As for `COc1ncc(-c2cc(O[C@@H]3CCN(C(=O)C4CCOCC4)C3)c3cnn(C)c3n2)cc1NS(C)(=O)=O`, the IC50 was 2.6 nM.
The value for `COc1ncc(-c2cc(O[C@@H]3CCN(Cc4c(C)nn(C)c4C)C3)c3cnn(C)c3n2)cc1NS(C)(=O)=O` was 2.1 nM.
The value for `COc1ncc(-c2cc(OC[C@@H]3CCCN(CCC4CCOCC4)C3)c3cnn(C)c3n2)cc1NS(C)(=O)=O` was 0.41 nM; that for `COc1ncc(-c2cc(OC[C@@H]3CCCN(Cc4c(C)nn(C)c4C)C3)c3cnn(C)c3n2)cc1NS(C)(=O)=O` was 1.5 nM; that for `COc1ncc(-c2cc(OC[C@@H]3CCCN(CC4(C)COC4)C3)c3cnn(C)c3n2)cc1NS(C)(=O)=O` was 1.5 nM.
Take `COc1ncc(-c2cc(OC[C@@H]3CCCN(C(=O)C4CCN(C(C)=O)CC4)C3)c3cnn(C)c3n2)cc1NS(C)(=O)=O`: the IC50 came out at 4.3 nM.
On to `COc1ncc(-c2cc(OC3CN(C(=O)C4CCOCC4)C3)c3cnn(C)c3n2)cc1NS(C)(=O)=O`, for which the IC50 worked out at 20 nM.
Under `COc1ncc(-c2cc(OC[C@@H]3CCCN(Cc4cn(C)nc4C)C3)c3cnn(C)c3n2)cc1NS(C)(=O)=O` stands 4.8 nM.
The value for `COc1ncc(-c2cc(OC[C@@H]3CCCN(C(=O)C4CCOCC4)C3)c3cnn(C)c3n2)cc1NS(C)(=O)=O` was 1.4 nM.
The value for `COc1ncc(-c2cc(OC[C@@H]3CCCN(C(=O)CC4CCOC4)C3)c3cnn(C)c3n2)cc1NS(C)(=O)=O` (some centres not stated) was 2.9 nM; that for `COc1ncc(-c2cc(OC[C@@H]3CCCN(CC4CCOCC4)C3)c3cnn(C)c3n2)cc1NS(C)(=O)=O` was 0.29 nM.
On to `COc1ncc(-c2cc(OC[C@H]3CCCN(C(=O)C4CCOCC4)C3)c3cnn(C)c3n2)cc1NS(C)(=O)=O`, for which the IC50 was 7.8 nM.
